# Experimental data: paper PMC9773825
# Test: not told
structure (smiles),measurement,setting,value
CON(C)Cc1ccc(O)c2c1CC1CC3C(N(C)C)C(O)=C(C(N)=O)C(=O)C3(O)C(O)=C1C2=O (stereo not drawn),log partition chloroform / water/buffer,"pH 3.5, 25",1.14 log10
same,log partition octanol / water/buffer,"pH 3.5, 25",−0.30 log10
same,log partition chloroform / water/buffer,"pH 5.5, 25",1.48 log10
same,log partition octanol / water/buffer,"pH 5.5, 25",−0.16 log10
same,log partition chloroform / water/buffer,"pH 7.4, 25",1.46 log10
same,log partition octanol / water/buffer,"pH 7.4, 25",−0.26 log10
